In patent US8563503B2, “Antibiotic, its nucleotide sequence, methods of construction and uses thereof” (Protein Design Lab. Ltd., priority 2011, dated 2013):

Tests used:
[1] = test system: Staphylococcus aureus ATCC 29213; test: MIC against the infecting strain (Table 2); assay type: cell-based; conditions: ATCC29213
Method in brief: (§1)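 MIC = lowest drug level in agar showing no bacterial growth after 18-24 h at 37° C. Spots of 10^5 CFU/ml were multipoint-inoculated onto MH agar with twofold drug dilutions; enterococci used MH plus 5-10% rabbit blood under 5% CO2.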

E. coli 02-1-65 [2] = test: MIC against the infecting strain (Table 2); assay type: cell-based; conditions: Escherichia coli, 02165
Method in brief: as §1

[3] = test system: Staphylococcus aureus MRSA BAA-42; test: MIC against the infecting strain (Table 2); assay type: cell-based; conditions: Staphylococcus aureus
Method in brief: as §1

[4] = test system: ATCC 25923 penicillin-sensitive Staphylococcus aureus; test: Bacteria growth curve (A595 nm cloudiness), penicillin-sensitive Staphylococcus aureus; assay type: cell-based; conditions: drug 100 ng/ml, 37° C., A595 nm per hour
Method: The bacterium was United States Reference Culture ATCC 25923 penicillin-sensitive Staphylococcus aureus. 2 microliter of bacteria solution (10^5 CFU/ml) was added into 10 ml culture solution containing 1% tryptone, 1% NaCl, 0.5% yeast extract, 0.5% glucose and 0.1% K2HPO4, totally prepared six groups. The first group as control was added 0.3 M NaCl+50 mM boric acid buffer fluid (i.e. blank preservative fluid for novel antibiotic, wild-type colicin Ia and protein produced by BL-21 engineering bacteria without plasmid, by the same volumes of antibiosis polypeptide liquid in the experimental group, the second group was added penicillin G sodium by 100 ng/ml, the third group was added wild-type colicin Ia by 100 ng/ml, the fourth group was added protein produced by BL-21 engineering bacteria without plasmid by 100 ng/ml, the fifth group was added recombinant protein that C-terminus of colicin Ia is fused other eight peptides by 100 ng/ml, and the sixth group was added the novel antibiotic PMC-SA1 by 100 ng/ml.
The solutions of the six groups were respectively put into 100 ml conical flask, 200 rpm, grew at 37° C. 100 μl was sampled per hour, and added onto 96 hole ELISA Plate and measured bacterium growth cloudiness by spectrophotometer (A595 nm) color comparison. The bacteria-growth curve was drawn up to compare the bacteriostasis efficacy of novel antibiosis.

Enterococcus ATCC 700802 [5] = test: MIC against the infecting strain (Table 2); assay type: cell-based, Enterococcus faecalis; conditions: ATCC700802
Method: (§2) (3) Culture Solution • MH Broth Culture Solution: 25 g was added into […] distilled water, heat to dissolve, subpackaged, autoclaved at 116° C. for 20 minutes, and MH Solid Culture Medium, 36 g was added into 1000 ml distilled water, autoclaved at 116° C. for 20 minutes, used for drug sensitive test of Gram-positive and negative aerobic bacteria. • Blood culture solution for Enterococcus faecalis, which was prepared by adding defibration rabbit blood into the MH culture solution by 5-10% and cultured at 37° C. in 5% CO2 for 24 hours. 2. Experimental Methods (1) The Measurement of Minimum Inhibitory Concentration (MIC) • The Minimum Inhibitory Concentration (MIC) of PMC-SA1 was measured by Agar Doubling Dilution Method. The bacterium was inoculated on the surface of agar plate containing different concentration of drugs by multipoint inoculate instrument (Deneley A400). The bacterial content per point was 10^5 CFU/ml. After incubated at 37° C. for 18-24 hours, the result can be observed. The least concentration of drugs in plate culture solution without bacterium growing was Minimum Inhibitory Concentration (MIC) of the drug to the said bacteria. 3. Results

Enterococcus = test: MIC by Agar Doubling Dilution Method, clinical isolates; assay type: cell-based, Enterococcus faecalis; conditions: Enterococcus
Method: as §2

[6] = test system: Staphylococcus aureus ATCC 29213; test: Protection test in vivo (intravenous injection) of infected mice; set-up: species or system Kungming mice; conditions: Staphylococcus aureus, ATCC29213
Method in brief: (§3)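 Mice got a lethal intraperitoneal bacterial challenge, then one intravenous dose of drug in sterile water at 10, 5 or 2.5 mg/kg. Survival was checked every 24 h for 7–14 days, with death counted as the positive result.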

Enterococcus ATCC 700802 [7] = test: as above; set-up: species or system Kungming mice; conditions: Enterococcus, ATCC700802
Method in brief: as §3

E. coli 02-1-65 [8] = test: as above; set-up: species or system Kungming mice; conditions: Escherichia coli, 02165
Method in brief: as §3

[9] = test system: Staphylococcus aureus MRSA BAA-42; test: as above; set-up: species or system Kungming mice; conditions: Staphylococcus aureus
Method in brief: as §3

[10] = test system: Staphylococcus epidermidis (MRSE); test: MIC by Agar Doubling Dilution Method, clinical isolates; assay type: cell-based; conditions: Staphylococcus epidermidis, MRSE
Method: as §2

Baumanii = test: as above; assay type: cell-based
Method: as §2

[11] = test system: Staphylococcus aureus (MRSA); test: as above; assay type: cell-based; conditions: Staphylococcus aureus, MRSA
Method: as §2

E. coli = test: as above; assay type: cell-based; conditions: Escherichia coli, E. coli clinical strains
Method: as §2

[12] = test system: Staphylococcus epidermidis (MSSE strain); test: as above; assay type: cell-based
Method: as §2

[13] = test system: Staphylococcus aureus (MSSA); test: as above; assay type: cell-based; conditions: Staphylococcus aureus, MSSA
Method: as §2

In the case of `CC1(C)S[C@@H]2[C@H](NC(=O)Cc3ccccc3)C(=O)N2[C@H]1C(=O)O` [Penicillin, Benzylpenicillin Sodium], the MIC [1] is reported as 16 µg/mL, the MIC (E. coli 02-1-65 [2]) is reported as over 128 µg/mL and the MIC [3] is reported as 8 µg/mL. For the same compound, the “growth of penicillin-sensitive Staphylococcus aureus (bacteria-growth curve)” value [4] was “restrained”, the MIC (Enterococcus ATCC 700802 [5]) was 4 µg/mL and the MIC50 (Enterococcus) was 32 µg/mL. It also gave an MIC90 (Enterococcus) of 64 µg/mL, an ED50 [6] of 10.8 mg/kg and an ED50 (Enterococcus ATCC 700802 [7]) of 4.16 mg/kg. For the same compound, the ED50 (E. coli 02-1-65 [8]) was over 34.5 mg/kg, the ED50 [9] was 14.7 mg/kg and the MIC50 [10] was over 128 µg/mL. The MIC90 [10] was over 128 µg/mL, the MIC50 (Baumanii) was over 128 µg/mL and the MIC90 (Baumanii) was over 128 µg/mL. For the same compound, the MIC (Baumanii; read-out: Scope of MIC) was over 128 µg/mL, the MIC50 [11] was 128 µg/mL and the MIC90 [11] was over 128 µg/mL. The MIC ([11]; read-out: Scope of MIC) was 1 to 128 µg/mL, the MIC50 (E. coli; read-out: MIC50) was over 128 µg/mL and the MIC90 (E. coli; read-out: MIC90) was over 128 µg/mL. The MIC (E. coli; read-out: Scope of MIC) was over 128 µg/mL, the “Scope of MIC” value ([12]; MSSE clinical strains) was 0.125 to 128 µg/mL and the MIC50 ([12]; Staphylococcus epidermidis) was 4 µg/mL. For the same compound, the MIC90 ([12]; Staphylococcus epidermidis) was 32 µg/mL, the MIC50 [13] was 8 µg/mL and the MIC90 [13] was 64 µg/mL.
